Test system: Mango-II (RNA, aptamer) GCGUACGAAGGAGAGGAGAGGAAGAGGAGAGUACGC
Assay: fluorescence binding

| Kd | SMILES |
| --- | --- |
| 1.1 nM | CN1C=CC(=Cc2sc3ccccc3[n+]2CC(=O)NCCOCCOCCOCCNC(=O)CCCC[C@@H]2SC[C@@H]3NC(=O)N[C@@H]32)c2ccccc21 |
| ~ 1.4 nM | CN1C=CC(=C/C=C/c2sc3ccccc3[n+]2CC(=O)NCCOCCOCCOCCNC(=O)CCCC[C@@H]2SC[C@@H]3NC(=O)N[C@@H]32)c2ccccc21 |

Reference: PMC6315298 (2018)
